The supplement of paper PMC12137928
Structures can show the parent of a compound that is named as a salt.

System: HCT116
Details: 72 h
Outline: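 HCT116 cells were seeded at 250 per well in 1536-well plates and left 5 h to attach. CellTiter-Glo luminescence was scaled to vehicle (0%) and positive control (-100%), then pattern-corrected. IC50 and maximal efficacy came from four-parameter Hill fits.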

**Q.** Which IC50 cell viability (ICRF193 0 nM) does the source give for `CC1OC2(CS1)CN1CCC2CC1` (stereo not given) [Cevimeline hydrochloride] here?
**A.** > 45.8 µM

**Q.** What about the IC50 cell viability (ICRF193 200 nM) of the same compound?
**A.** > 45.8 µM

**Q.** With `CN(C)CCC(O)(c1ccccc1)c1ccccc1Cl` (stereo not given) [Chlophedianol] as the compound, how does the IC50 cell viability (ICRF193 0 nM) read?
**A.** > 45.8 µM

**Q.** And the IC50 cell viability (ICRF193 200 nM)?
**A.** > 45.8 µM

**Q.** With `O=C(O)CCCc1ccc(N(CCCl)CCCl)cc1` [Chlorambucil] as the compound, how does the IC50 cell viability (ICRF193 0 nM) read?
**A.** > 45.8 µM

**Q.** What about the IC50 cell viability (ICRF193 200 nM) of the same compound?
**A.** > 45.8 µM

**Q.** `CCCCCCCCCCCCCCCC(=O)OC[C@@H](NC(=O)C(Cl)Cl)[C@H](O)c1ccc([N+](=O)[O-])cc1` [Chloramphenicol palmitate] was tested. Which IC50 cell viability (ICRF193 0 nM) did it give?
**A.** > 45.8 µM

**Q.** What about the IC50 cell viability (ICRF193 200 nM) of the same compound?
**A.** > 45.8 µM

**Q.** Which results are given for `O=C(O)CCC(=O)OC[C@@H](NC(=O)C(Cl)Cl)[C@H](O)c1ccc([N+](=O)[O-])cc1` [Chloramphenicol sodium succinate]?
**A.** IC50 cell viability (ICRF193 0 nM): > 45.8 µM; IC50 cell viability (ICRF193 200 nM): > 45.8 µM

**Q.** For `O=C(N[C@H](CO)[C@H](O)c1ccc([N+](=O)[O-])cc1)C(Cl)Cl` [Chloramphenicol], which IC50 cell viability (ICRF193 0 nM) is on record?
**A.** > 45.8 µM

**Q.** What about the IC50 cell viability (ICRF193 200 nM) of the same compound?
**A.** > 45.8 µM

**Q.** Which results are given for `CN1CCN(C(c2ccccc2)c2ccc(Cl)cc2)CC1` (stereo not given) [Chlorcyclizine]?
**A.** IC50 cell viability (ICRF193 0 nM): > 45.8 µM; IC50 cell viability (ICRF193 200 nM): > 45.8 µM

**Q.** `NS(=O)(=O)c1cc2c(cc1Cl)CN(C1CCCCC1)C2=O` [Chlorexolone] was tested. Which IC50 cell viability (ICRF193 0 nM) did it give?
**A.** > 45.8 µM

**Q.** What about the IC50 cell viability (ICRF193 200 nM) of the same compound?
**A.** > 45.8 µM

**Q.** For `CC(=O)O[C@]1(C(C)=O)CC[C@H]2[C@@H]3C=C(Cl)C4=CC(=O)CC[C@]4(C)[C@H]3CC[C@@]21C` [Chlormadinone acetate], which IC50 cell viability (ICRF193 0 nM) is on record?
**A.** > 45.8 µM

**Q.** And the IC50 cell viability (ICRF193 200 nM)?
**A.** > 45.8 µM

**Q.** What does the source list for `CN1C(=O)CCS(=O)(=O)C1c1ccc(Cl)cc1` (stereo not given) [Chlormezanone]?
**A.** IC50 cell viability (ICRF193 0 nM): > 45.8 µM; IC50 cell viability (ICRF193 200 nM): > 45.8 µM

**Q.** How did the IC50 cell viability (ICRF193 0 nM) turn out when `CCN(CC)CCOC(=O)c1ccc(N)cc1Cl` [Chloroprocaine HCl] was run?
**A.** > 45.8 µM

**Q.** And the IC50 cell viability (ICRF193 200 nM)?
**A.** > 45.8 µM

**Q.** Which results are given for `CCN(CC)CCCC(C)Nc1ccnc2cc(Cl)ccc12` (stereo not given) [Chloroquine]?
**A.** IC50 cell viability (ICRF193 0 nM): > 45.8 µM; IC50 cell viability (ICRF193 200 nM): > 45.8 µM

**Q.** With `NS(=O)(=O)c1cc2c(cc1Cl)N=CNS2(=O)=O` [Chlorothiazide] as the compound, how does the IC50 cell viability (ICRF193 0 nM) read?
**A.** > 45.8 µM

**Q.** And the IC50 cell viability (ICRF193 200 nM)?
**A.** > 45.8 µM

**Q.** Which IC50 cell viability (ICRF193 0 nM) does the source give for `NC(=O)OCC(O)COc1ccc(Cl)cc1` (stereo not given) [Chlorphensin carbamate] here?
**A.** > 45.8 µM

**Q.** What about the IC50 cell viability (ICRF193 200 nM) of the same compound?
**A.** > 45.8 µM

**Q.** What does the source list for `CCCNC(=O)NS(=O)(=O)c1ccc(Cl)cc1` [Chlorpropamide]?
**A.** IC50 cell viability (ICRF193 0 nM): > 45.8 µM; IC50 cell viability (ICRF193 200 nM): > 45.8 µM

**Q.** `CN(C)[C@@H]1C(O)=C(C(N)=O)C(=O)[C@@]2(O)C(O)=C3C(=O)c4c(O)ccc(Cl)c4[C@@](C)(O)[C@H]3C[C@@H]12` [Chlortetracycline HCl] was tested. Which IC50 cell viability (ICRF193 0 nM) did it give?
**A.** > 45.8 µM

**Q.** What about the IC50 cell viability (ICRF193 200 nM) of the same compound?
**A.** > 45.8 µM

**Q.** Which IC50 cell viability (ICRF193 0 nM) does the source give for `NS(=O)(=O)c1cc(C2(O)NC(=O)c3ccccc32)ccc1Cl` (stereo not given) [Chlorthalidone] here?
**A.** > 45.8 µM

**Q.** What about the IC50 cell viability (ICRF193 200 nM) of the same compound?
**A.** > 45.8 µM

**Q.** Which IC50 cell viability (ICRF193 0 nM) does the source give for `CC(C)(Oc1ccc(Cl)cc1)C(=O)OCCCOC(=O)C(C)(C)Oc1ccc(Cl)cc1` [Cholesolvin] here?
**A.** > 45.8 µM

**Q.** And the IC50 cell viability (ICRF193 200 nM)?
**A.** > 45.8 µM

**Q.** What does the source list for `CC(C)CCC[C@@H](C)[C@H]1CC[C@H]2[C@@H]3CC=C4C[C@@H](O)CC[C@]4(C)[C@H]3CC[C@]12C` [Cholesterol]?
**A.** IC50 cell viability (ICRF193 0 nM): > 45.8 µM; IC50 cell viability (ICRF193 200 nM): > 45.8 µM

**Q.** Which results are given for `C[C@H](CCC(=O)O)[C@H]1CC[C@H]2[C@@H]3[C@H](O)C[C@@H]4C[C@H](O)CC[C@]4(C)[C@H]3C[C@H](O)[C@]12C` [Cholic Acid]?
**A.** IC50 cell viability (ICRF193 0 nM): > 45.8 µM; IC50 cell viability (ICRF193 200 nM): > 45.8 µM

**Q.** Which results are given for `C[N+](C)(C)CCO.[Cl-]` [Choline Chloride]?
**A.** IC50 cell viability (ICRF193 0 nM): > 45.8 µM; IC50 cell viability (ICRF193 200 nM): > 45.8 µM

**Q.** For `CCOC(=O)COc1ccc2c(C)c(CCN(CC)CC)c(=O)oc2c1` [Chromonar hydrochloride], which IC50 cell viability (ICRF193 0 nM) is on record?
**A.** > 45.8 µM

**Q.** What about the IC50 cell viability (ICRF193 200 nM) of the same compound?
**A.** > 45.8 µM

**Q.** How did the IC50 cell viability (ICRF193 0 nM) turn out when `Cc1cc(O)c2c(O)c3c(O)cccc3cc2c1` [Chrysarobin] was run?
**A.** > 45.8 µM

**Q.** What about the IC50 cell viability (ICRF193 200 nM) of the same compound?
**A.** > 45.8 µM

**Q.** `c1ccc(C2(c3ccccc3)CC2C2=NCCN2)cc1` (stereo not given) [Cibenzoline succinate] was tested. Which IC50 cell viability (ICRF193 0 nM) did it give?
**A.** > 45.8 µM

**Q.** What about the IC50 cell viability (ICRF193 200 nM) of the same compound?
**A.** > 45.8 µM

**Q.** With `CC(C)C(=O)OCC(=O)[C@@]12O[C@H](C3CCCCC3)O[C@@H]1C[C@H]1[C@@H]3CCC4=CC(=O)C=C[C@]4(C)[C@H]3[C@@H](O)C[C@@]12C` [Ciclesonide] as the compound, how does the IC50 cell viability (ICRF193 0 nM) read?
**A.** > 45.8 µM

**Q.** What about the IC50 cell viability (ICRF193 200 nM) of the same compound?
**A.** > 45.8 µM

**Q.** What does the source list for `Nc1ccn(C[C@@H](CO)OCP(=O)(O)O)c(=O)n1` [Cidofovir]?
**A.** IC50 cell viability (ICRF193 0 nM): > 45.8 µM; IC50 cell viability (ICRF193 200 nM): > 45.8 µM

**Q.** How did the IC50 cell viability (ICRF193 0 nM) turn out when `CC1(C)C[C@@H]1C(=O)N/C(=C\CCCCSC[C@H](N)C(=O)O)C(=O)O` [Cilastatin] was run?
**A.** > 45.8 µM

**Q.** What about the IC50 cell viability (ICRF193 200 nM) of the same compound?
**A.** > 45.8 µM

**Q.** Which results are given for `CCOC(=O)[C@H](CCc1ccccc1)N[C@H]1CCCN2CCC[C@@H](C(=O)O)N2C1=O` [Cilazapril]?
**A.** IC50 cell viability (ICRF193 0 nM): > 45.8 µM; IC50 cell viability (ICRF193 200 nM): > 45.8 µM

**Q.** Which IC50 cell viability (ICRF193 0 nM) does the source give for `CC(C)[C@H]1C(=O)N[C@@H](CCCNC(=N)N)C(=O)NCC(=O)N[C@@H](CC(=O)O)C(=O)N[C@H](Cc2ccccc2)C(=O)N1C` [Cilengitide] here?
**A.** > 45.8 µM

**Q.** And the IC50 cell viability (ICRF193 200 nM)?
**A.** > 45.8 µM

**Q.** How did the IC50 cell viability (ICRF193 0 nM) turn out when `COc1ccc([C@]2(C#N)CC[C@@H](C(=O)O)CC2)cc1OC1CCCC1` [Cilomilast] was run?
**A.** > 45.8 µM

**Q.** What about the IC50 cell viability (ICRF193 200 nM) of the same compound?
**A.** > 45.8 µM
